Measurements: US7034026B2, “Inhibitors of Akt activity” (Merck & Co., Inc., priority 2001, dated 2006)

Test system: PKC (mix of isoforms)
Experiment: PKC assay (counter screen)
Type: biochemical
Details: myelin basic protein substrate, 10 μM ATP; read-out: Counter screens IC50 (μM) PKC
Protocol: Final assay concentrations were as follows: 0.25 mM EGTA, 0.4 mM CaCl, 20 mM Tris pH 7.5, 10 mM MgCl, 1 mM 2-mercaptoethanol, 0.32 mg/ml phosphatidylserine, 0.032 mg/ml diacylglycerol, 10 μM ^33P-ATP, 70 μg/ml MBP, 10 ng/ml PKC, 0.1 mg/ml BSA.
Assays are performed using 96 deep well assay plates. In each assay well 10 μl of solvent control or appropriate inhibitor dilution with 5 μl ^33P-ATP (components #5 and #3) were premixed. […] The liquid in the assay wells was thoroughly mixed and the assay reactions incubated for 20 minutes at room temperature. The reactions were stopped by adding 100 mM EDTA (50 μl) and 100 mM sodium pyrophosphate (50 μl) and mixing. Phosphorylated MBP was collected on PVDF membranes in 96 well filter plates and quantitated by scintillation counting.

| SMILES | IC50 [µM] |
| --- | --- |
| CC(C)(N)c1ccc(-c2nc3ccccc3nc2-c2ccccc2)cc1 [Compound 1, 2-[4-(2-aminoprop-2-yl)phenyl]-3-phenylquinoxaline] | > 80 |
| Nc1ccc(-c2nc3ccccc3nc2-c2ccc(N)cc2)cc1 [Compound 2, 2,3-bis(4-aminophenyl)-quinoxaline] | > 80 |
